Measurements reported in patent US20200017495A1, “NOVEL HETEROCYCLIC COMPOUNDS AND THEIR USE IN PREVENTING OR TREATING BACTERIAL INFECTIONS” (priority 2017, published 2020).

How the values were obtained:
[1] = test system: Citrobacter murliniae (CMU) isolates; assay: MIC of compounds alone and combined with antibacterials, broth microdilution (CLSI); type: cell-based; settings: for MIC ATB in combination: CMU 210102
In short: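 Compounds tested alone or with an antibacterial against genotyped isolates; DMSO dilutions spotted, then log-phase inoculum at 5.10^5 CFU/mL in cation-adjusted Mueller-Hinton broth added. Incubation 16-20 h at 35° C in ambient air. MIC read visually as lowest concentration preventing growth; for combinations, antibacterial MIC determined at each compound concentration.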

[2] = test system: Klebsiella pneumoniae (KPN) isolates; assay: as above; type: cell-based
In short: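 First, log-phase suspensions are brought to 5.10^5 CFU/mL final in ca-MHB; plates then incubate 16-20 h at 35° C in air. Growth is judged visually, giving the compound MIC alone and the antibacterial MIC at each compound concentration.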

C=CC1=C(C(=O)O)N2C(=O)[C@@H](NC(=O)/C(=N\OCC(=O)O)c3csc(N)n3)[C@H]2SC1 [FIX, Cefixime]
64 µg/mL: MIC ATB in combination ([2]; KPN BAA-1898, CLA @ 4 μg/mL)
1 µg/mL: MIC ATB in combination ([2]; KPN 190128, AF2 @ 8 μg/mL) | MIC ATB in combination ([2]; KPN 190128, AF3 @ 8 μg/mL) | MIC ATB in combination ([2]; KPN 190270, CLA @ 4 μg/mL)
>128 µg/mL: MIC ATB in combination ([1]; AF2 @ 8 μg/mL) | MIC ATB in combination ([1]; AF3 @ 8 μg/mL) | MIC ATB in combination ([1]; CLA @ 4 μg/mL) | MIC ([1]; strain CMU 210102, genotype VIM-4) | MIC ATB in combination ([2]; KPN 121206, AF2 @ 8 μg/mL) | MIC ATB in combination ([2]; KPN 121206, AF3 @ 8 μg/mL) | MIC ATB in combination ([2]; KPN 121206, CLA @ 4 μg/mL) | MIC ATB in combination ([2]; KPN 131119, CLA @ 4 μg/mL) | MIC ATB in combination ([2]; KPN 140513, CLA @ 4 μg/mL)
128 µg/mL: MIC ATB in combination ([2]; KPN 110376, CLA @ 4 μg/mL) | MIC ATB in combination ([2]; KPN 260252, CLA @ 4 μg/mL) | MIC ATB in combination ([2]; KPN ARA, CLA @ 4 μg/mL)
16 µg/mL: MIC ATB in combination ([2]; KPN 260252, AF2 @ 8 μg/mL) | MIC ATB in combination ([2]; KPN 260252, AF3 @ 8 μg/mL)
<=0.25 μg/mL: MIC ATB in combination ([2]; KPN 6299, AF2 @ 8 μg/mL) | MIC ATB in combination ([2]; KPN 6299, AF3 @ 8 μg/mL) | MIC ATB in combination ([2]; KPN 110376, AF3 @ 8 μg/mL) | MIC ATB in combination ([2]; KPN 131119, AF2 @ 8 μg/mL) | MIC ATB in combination ([2]; KPN 131119, AF3 @ 8 μg/mL) | MIC ATB in combination ([2]; KPN 190425, AF3 @ 8 μg/mL) | MIC ATB in combination ([2]; KPN 190425, CLA @ 4 μg/mL) | MIC ATB in combination ([2]; KPN 190551, CLA @ 4 μg/mL) | MIC ATB in combination ([2]; KPN 200047, CLA @ 4 μg/mL) | MIC ATB in combination ([2]; KPN 200327, CLA @ 4 μg/mL) | MIC ATB in combination ([2]; KPN 260251, AF2 @ 8 μg/mL) | MIC ATB in combination ([2]; KPN 260251, AF3 @ 8 μg/mL) | MIC ATB in combination ([2]; KPN 260376, CLA @ 4 μg/mL) | MIC ATB in combination ([2]; KPN 270077, AF3 @ 8 μg/mL) | MIC ATB in combination ([2]; KPN 700603, AF2 @ 8 μg/mL) | MIC ATB in combination ([2]; KPN ARA, AF2 @ 8 μg/mL) | MIC ATB in combination ([2]; KPN BAA-1898, AF2 @ 8 μg/mL) | MIC ATB in combination ([2]; KPN BAA-1898, AF3 @ 8 μg/mL) | MIC ATB in combination ([2]; KPN LIB, CLA @ 4 μg/mL) | MIC ATB in combination ([2]; KPN UFR22_O, AF2 @ 8 μg/mL)
<0.25 µg/mL: MIC ATB in combination ([2]; KPN 110376, AF2 @ 8 μg/mL) | MIC ATB in combination ([2]; KPN 160143, AF2 @ 8 μg/mL) | MIC ATB in combination ([2]; KPN 160143, AF3 @ 8 μg/mL) | MIC ATB in combination ([2]; KPN 190551, AF2 @ 8 μg/mL) | MIC ATB in combination ([2]; KPN 190551, AF3 @ 8 μg/mL) | MIC ATB in combination ([2]; KPN 200047, AF2 @ 8 μg/mL) | MIC ATB in combination ([2]; KPN 200047, AF3 @ 8 μg/mL) | MIC ATB in combination ([2]; KPN 200327, AF2 @ 8 μg/mL) | MIC ATB in combination ([2]; KPN 200327, AF3 @ 8 μg/mL) | MIC ATB in combination ([2]; KPN 260376, AF2 @ 8 μg/mL) | MIC ATB in combination ([2]; KPN 260376, AF3 @ 8 μg/mL) | MIC ATB in combination ([2]; KPN ARA, AF3 @ 8 μg/mL) | MIC ATB in combination ([2]; KPN LIB, AF2 @ 8 μg/mL) | MIC ATB in combination ([2]; KPN LIB, AF3 @ 8 μg/mL)
8 µg/mL: MIC ATB in combination ([2]; KPN 6299, CLA @ 4 μg/mL) | MIC ATB in combination ([2]; KPN 140513, AF2 @ 8 μg/mL)
32 µg/mL: MIC ATB in combination ([2]; KPN 140513, AF3 @ 8 μg/mL) | MIC ATB in combination ([2]; KPN 260251, CLA @ 4 μg/mL)
0.5 µg/mL: MIC ATB in combination ([2]; KPN 190128, CLA @ 4 μg/mL) | MIC ATB in combination ([2]; KPN 190270, AF2 @ 8 μg/mL) | MIC ATB in combination ([2]; KPN 190270, AF3 @ 8 μg/mL) | MIC ATB in combination ([2]; KPN 190425, AF2 @ 8 μg/mL) | MIC ATB in combination ([2]; KPN 270077, AF2 @ 8 μg/mL) | MIC ATB in combination ([2]; KPN 270077, CLA @ 4 μg/mL) | MIC ATB in combination ([2]; KPN 700603, AF3 @ 8 μg/mL) | MIC ATB in combination ([2]; KPN 700603, CLA @ 4 μg/mL)
2 µg/mL: MIC ATB in combination ([2]; KPN 160143, CLA @ 4 μg/mL)
